Residues, ends and D or L forms follow the SMILES beside them.

The target in assay [1] is T1, mouse PD-1 (Mus musculus, UniProt Q02242).
T1 sequence (Q02242 25-288): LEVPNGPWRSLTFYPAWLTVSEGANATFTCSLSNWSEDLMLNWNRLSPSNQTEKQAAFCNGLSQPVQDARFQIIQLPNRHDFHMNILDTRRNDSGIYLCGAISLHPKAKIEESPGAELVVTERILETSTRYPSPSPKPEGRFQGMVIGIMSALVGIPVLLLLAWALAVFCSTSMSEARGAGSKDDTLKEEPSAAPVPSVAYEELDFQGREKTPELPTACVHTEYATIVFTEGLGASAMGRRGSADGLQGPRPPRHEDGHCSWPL
The assay is described as follows: BIACORE assay, mouse PD-1. Format: binding. As to conditions: for Rmax / KA / Kd: ligand mouse PD-1 10,000 RU, 25° C.; for KA / Kd: steady state equilibrium; for binding / affinity towards mouse PD-1 (in words): BIACORE. The procedure: (§1) BIACORE® assays were carried out using a BIACORE® T-200 at 25° C. The assay and regeneration buffers contained 10 mM HEPES (pH 7.4), 150 mM NaCl, 3 mM EDTA, and 0.05% P20. The immobilization buffer was 10 mM sodium acetate, pH 5.0. The flow rate used for immobilizing the ligand was 5 μl/min. The flow rate for kinetics analysis was 30 μl/min.
12,000 response units (RU) of human and 6000 RU of mouse PD-1 receptors were directly immobilized on flow cell 2 and flow cell 4 of the CMS chip by amine coupling method (EDC/NHS). The un-occupied sites were blocked with 1M ethanol amine. Scouting was performed at a single analyte concentration of 25 μM to confirm yes/no binding. Flow cell 1 was kept blank and used for reference subtraction. Binding of analyte to the ligand was monitored in real time.
Based on the scouting results, full kinetics were performed by immobilizing higher RU of the ligand to a new chip and analyte concentration at 25 μM, followed by serial dilution to 12.5, 6.25, 3.125, 1.562, 0.78 and 0 μM concentration or as indicated. Due to fast on rate and off rate, KD was determined by steady state equilibrium kinetics.
(§2) Chi square (χ2) analysis was carried out between the actual sensorgram and a sensorgram generated from the BIANALYSIS® software (black line) to determine the accuracy of the analysis. A χ2 value within 1-2 is considered significant (accurate) and below 1 is highly significant (highly accurate).
Background: SPR reads the build-up and loss of mass on a sensor chip optically.

In assay [2] the test system is human PBMCs. The class given is cell-based. Details: key: “x” indicates no effect; “−” indicates a possible low effect; “+” indicates some effect; “++” indicates a definite effect.
For assay [3], the target named is human PD-1 (Homo sapiens, UniProt Q15116). The assay is described as follows: BIACORE assay, human PD-1. The class given is binding. As to conditions: for binding / affinity towards human PD-1 (in words): BIACORE; for Rmax / KA / Kd: ligand human PD-1 10,000 RU, 25° C.; for KA / Kd: steady state equilibrium. The method, then: as §1
human PD-1, sequence (Q15116 25-288): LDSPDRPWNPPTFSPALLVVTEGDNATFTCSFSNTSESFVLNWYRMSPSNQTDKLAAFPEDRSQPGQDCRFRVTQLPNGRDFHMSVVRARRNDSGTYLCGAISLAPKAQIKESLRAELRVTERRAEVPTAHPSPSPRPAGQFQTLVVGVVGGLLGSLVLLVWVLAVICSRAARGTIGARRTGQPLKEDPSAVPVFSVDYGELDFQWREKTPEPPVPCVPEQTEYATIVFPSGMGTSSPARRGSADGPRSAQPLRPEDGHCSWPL
[…] The un-occupied sites were blocked with 1M ethanol amine. Scouting was performed at a single analyte concentration of 25 μM to confirm yes/no binding. Flow cell 1 was kept blank and used for reference subtraction. Binding of analyte to the ligand was monitored in real time.
[…] Due to fast on rate and off rate, KD was determined by steady state equilibrium kinetics.
as §2

Assay [4] concerns the target soluble recombinant human PD-1 receptor (Homo sapiens, UniProt Q15116). As to the kind of experiment: Clonal phage ELISA of phage display library clones. The class given is binding. The following applies: for Clonal Phase ELISA coated signal: after fifth round of panning; for Clonal Phase ELISA uncoated signal: uncoated (background). The text has this: The TriCo-20™ (TRICO-20™) and TriCo-16™ (TRICO-16™) Phage Display Peptide Libraries (Creative Biolabs, 45-1 Ramsey Road, Shirley, N.Y. 11967) were screened to identify binders of soluble recombinant human PD-1 receptor. After the fourth round of panning, obvious enrichment for specific binders was observed, and individual peptides were confirmed as weakly specific binders in a clonal phage ELISA. A fifth round of panning led to greater enrichment.
(ELISA stands for enzyme-linked immunosorbent assay.)

soluble recombinant human PD-1 receptor, sequence (Q15116 25-170 limits assumed): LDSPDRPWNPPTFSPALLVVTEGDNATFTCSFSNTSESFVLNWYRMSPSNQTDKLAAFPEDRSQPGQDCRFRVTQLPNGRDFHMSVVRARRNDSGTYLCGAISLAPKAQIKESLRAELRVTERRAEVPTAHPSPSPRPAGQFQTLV

In assay [1], “Mouse PD-L1: mouse PD-L1 used as analyte on immobilized mouse PD-1 in BIACORE [reference compound]” had an Rmax of 259 RU and a KA of 2.75e+06 M⁻¹.
As to `CSCC[C@H](NC(=O)CNC(=O)[C@@H](NC(=O)[C@H](Cc1c[nH]c2ccccc12)NC(=O)[C@H](Cc1c[nH]cn1)NC(=O)[C@H](CO)NC(=O)[C@H](CCCNC(=N)N)NC(=O)[C@@H](NC(=O)[C@H](CCC(N)=O)NC(=O)[C@H](Cc1ccc(O)cc1)NC(=O)[C@@H](NC(=O)[C@H](CCC(N)=O)NC(=O)[C@H](Cc1c[nH]cn1)NC(=O)[C@H](Cc1c[nH]cn1)NC(=O)[C@@H](N)Cc1c[nH]cn1)C(C)C)C(C)C)[C@@H](C)O)C(=O)N[C@@H](Cc1c[nH]cn1)C(=O)N[C@@H](CO)C(=O)NCC(=O)N[C@@H](Cc1c[nH]cn1)C(=O)N[C@@H](CC(=O)O)C(=O)O` [HD20] (H-HHHQVYQVRSHWTGMHSGHD-OH; N-terminus and C-terminus assumed), in assay [2], the IFNγ production result is “++”, the IL-2 production entry is on record as “−”, the IL-4 production entry is recorded as “x” and the IL-6 production entry is on record as “++”. In assay [2], the IL-10 production entry is reported as “x” and the TNFα production entry was “++”. In assay [3], the “binding / affinity towards human PD-1 (in words)” value was “highest affinity”, the Rmax stood at 3.35 RU, the KA amounted to 318000 M⁻¹ and binding was characterised by a dissociation constant (Kd) of 3.41 µM. In assay [1], this compound displayed an Rmax of 76 RU, a KA of 4250 M⁻¹ and a Kd of 235 µM. In assay [4], the “Clonal Phase ELISA coated signal” value was 0.281 and the “Clonal Phase ELISA uncoated signal” value stood at 0.109.
As for `CC[C@H](C)[C@H](NC(=O)[C@H](CCCCN)NC(=O)[C@@H]1CCCN1C(=O)[C@H](CCSC)NC(=O)[C@@H]1CCCN1C(=O)[C@@H](NC(=O)[C@@H](NC(=O)[C@H](CCCNC(=N)N)NC(=O)[C@@H](NC(=O)[C@@H](N)CCC(N)=O)[C@@H](C)O)[C@@H](C)O)C(C)C)C(=O)N[C@@H](Cc1c[nH]cn1)C(=O)N[C@@H](Cc1c[nH]cn1)C(=O)N1CCC[C@H]1C(=O)N1CCC[C@H]1C(=O)N[C@@H](Cc1c[nH]c2ccccc12)C(=O)N[C@@H](CCC(N)=O)C(=O)N[C@@H](CC(N)=O)C(=O)N[C@H](C(=O)N[C@H](C(=O)N1CCC[C@H]1C(=O)O)C(C)C)C(C)C` [QP20] (H-QTRTVPMPKIHHPPWQNVVP-OH; N-terminus and C-terminus assumed), in assay [2], the IFNγ production entry is “x”, the IL-2 production result was “x”, the IL-4 production result is listed as “−” and the IL-6 production result is reported as “x”. In assay [2], the IL-10 production result is “x” and the TNFα production result was “x”. In addition, in assay [3], the Rmax was found to be 3.83 RU, the KA was 93600 M⁻¹ and the Kd came to 10.7 µM. Moreover, in assay [1], the “binding / affinity towards mouse PD-1 (in words)” value is “highest affinity”, the Rmax worked out at 13.4 RU, the KA was found to be 18000 M⁻¹ and the Kd is 55.4 µM. Moreover, in assay [4], the “Clonal Phase ELISA coated signal” value was 0.851 and the “Clonal Phase ELISA uncoated signal” value worked out at 0.446.
Regarding `CSCC[C@H](NC(=O)[C@H](CCCCN)NC(=O)[C@H](Cc1ccccc1)NC(=O)[C@H](Cc1c[nH]cn1)NC(=O)[C@H](Cc1c[nH]cn1)NC(=O)[C@H](Cc1ccc(O)cc1)NC(=O)[C@H](CO)NC(=O)[C@@H](N)CO)C(=O)N1CCC[C@H]1C(=O)N[C@@H](CCC(=O)O)C(=O)N[C@@H](CC(C)C)C(=O)N[C@@H](Cc1c[nH]cn1)C(=O)N[C@@H](Cc1ccccc1)C(=O)NCC(=O)N[C@@H](CCCCN)C(=O)N[C@@H](CC(N)=O)C(=O)N[C@H](C(=O)N[C@@H](Cc1ccccc1)C(=O)N[C@@H](Cc1c[nH]cn1)C(=O)N[C@@H](CCC(N)=O)C(=O)O)[C@@H](C)O` [SQ20] (H-SSYHHFKMPELHFGKNTFHQ-OH; N-terminus and C-terminus assumed), in assay [2], the IFNγ production result is recorded as “++”, the IL-2 production result was “+”, the IL-4 production result was “−” and the IL-6 production result is listed as “++”. Further, in assay [2], the IL-10 production result is reported as “+” and the TNFα production result is reported as “+”. Besides, in assay [3], the “binding / affinity towards human PD-1 (in words)” value is “highest affinity”, the Rmax came out at 4.05 RU, the KA came out at 194000 M⁻¹ and the Kd is 5.16 µM. In addition, in assay [1], the “binding / affinity towards mouse PD-1 (in words)” value is listed as “highest affinity”, the Rmax is listed as 12.8 RU, the KA worked out at 21400 M⁻¹ and binding was characterised by a dissociation constant (Kd) of 46.8 µM. Moreover, in assay [4], the “Clonal Phase ELISA coated signal” value amounted to 0.284 and the “Clonal Phase ELISA uncoated signal” value is listed as 0.159.
Take `CC[C@H](C)[C@H](NC(=O)[C@H](Cc1c[nH]c2ccccc12)NC(=O)[C@H](CCC(=O)O)NC(=O)[C@H](Cc1c[nH]cn1)NC(=O)[C@H](CCC(=O)O)NC(=O)[C@H](Cc1c[nH]cn1)NC(=O)[C@@H]1CCCN1C(=O)[C@H](CCCNC(=N)N)NC(=O)[C@@H](NC(=O)[C@H](Cc1c[nH]cn1)NC(=O)[C@H](Cc1c[nH]cn1)NC(=O)[C@H](CC(N)=O)NC(=O)[C@H](Cc1c[nH]cn1)NC(=O)[C@H](Cc1ccccc1)NC(=O)[C@H](CO)NC(=O)[C@H](C)NC(=O)[C@@H]1CCCN1C(=O)[C@H](CC(C)C)NC(=O)[C@H](CC(N)=O)NC(=O)[C@@H](N)Cc1c[nH]c2ccccc12)[C@@H](C)CC)C(=O)N[C@@H](CCC(N)=O)C(=O)O` [WQ20] (H-WNLPASFHNHHIRPHEHEWIQ-OH; N-terminus and C-terminus assumed): in assay [2], the IFNγ production result is on record as “++”, the IL-2 production entry was “−”, the IL-4 production result is “++” and the IL-6 production result is on record as “++”. For the same compound, in assay [2], the IL-10 production result is “x” and the TNFα production result is “++”. In assay [3], this compound yielded an Rmax of 84.7 RU, a KA of 3280 M⁻¹ and an equilibrium dissociation constant (Kd) of 305 µM. In assay [1], this compound displayed an Rmax of 270 RU, a KA of 1310 M⁻¹ and a dissociation constant (Kd) of 761 µM. Besides, in assay [4], the “Clonal Phase ELISA coated signal” value was found to be 0.275 and the “Clonal Phase ELISA uncoated signal” value amounted to 0.115.

The Kd is a measure of binding affinity in units of concentration.

(Values after patent US10799555B2, “PD-1 peptide inhibitors” (Leidos, Inc., priority 2016, dated 2020).)
